Laboratory results as given in PubChem BioAssay (NCI).
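In this assay, cells in 96-well plates receive the compound at five concentrations for 48 hours. Endpoints are linearly interpolated between the surrounding concentrations. At the TGI there is no net growth.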

What was measured:
Experiment in all cases: inhibition of tumour cell growth, NCI panel, 48 h
SK-MEL-28 melanoma = system: SK-MEL-28 melanoma
786-0 renal = system: 786-0 renal
ACHN renal = system: ACHN renal
HT29 colon = system: HT29 colon
NCI-H460 lung = system: NCI-H460 lung
K-562 leukemia = system: K-562 leukemia
EKVX NSCLC = system: EKVX NSCLC
UO-31 renal = system: UO-31 renal
M14 melanoma = system: M14 melanoma
OVCAR-3 ovarian = system: OVCAR-3 ovarian
UACC-257 melanoma = system: UACC-257 melanoma
HCC-2998 colon = system: HCC-2998 colon
MOLT-4 leukemia = system: MOLT-4 leukemia
SN12C renal = system: SN12C renal

O=C1CSC(c2ccc([N+](=O)[O-])cc2)N1c1ccc(-c2ccc(-n3c(-c4ccccc4)nc4ccccc4c3=O)cc2)cc1 (stereo not given)
TGI (SK-MEL-28 melanoma): > 100 µM
TGI (786-0 renal): > 100 µM
TGI (ACHN renal): > 100 µM
TGI (HT29 colon): > 100 µM
TGI (NCI-H460 lung): > 100 µM
TGI (K-562 leukemia): > 100 µM
TGI (EKVX NSCLC): > 100 µM
TGI (UO-31 renal): > 100 µM
TGI (M14 melanoma): > 100 µM
TGI (OVCAR-3 ovarian): > 100 µM
TGI (UACC-257 melanoma): > 100 µM
TGI (HCC-2998 colon): > 100 µM
TGI (MOLT-4 leukemia): > 100 µM
TGI (SN12C renal): > 100 µM

O=c1[nH]nc(Cc2ccccc2)n1/N=C/c1cccnc1
TGI (SK-MEL-28 melanoma): > 100 µM
TGI (786-0 renal): > 100 µM
TGI (ACHN renal): > 100 µM
TGI (HT29 colon): > 100 µM
TGI (NCI-H460 lung): > 100 µM
TGI (K-562 leukemia): > 100 µM
TGI (EKVX NSCLC): > 100 µM
TGI (UO-31 renal): > 100 µM
TGI (M14 melanoma): > 100 µM
TGI (OVCAR-3 ovarian): > 100 µM
TGI (UACC-257 melanoma): > 100 µM
TGI (HCC-2998 colon): > 100 µM
TGI (MOLT-4 leukemia): > 100 µM
TGI (SN12C renal): > 100 µM

C#CC1(O)CCC2[C@@H]3CCc4cc(Oc5nc(F)nc(-c6c7ccccc7c(SCC)n6CCC)n5)ccc4C3CC[C@@]21C (stereo not given in full)
TGI (SK-MEL-28 melanoma): > 100 µM
TGI (786-0 renal): > 100 µM
TGI (ACHN renal): > 100 µM
TGI (HT29 colon): > 100 µM
TGI (NCI-H460 lung): > 100 µM
TGI (K-562 leukemia): > 100 µM
TGI (EKVX NSCLC): > 100 µM
TGI (UO-31 renal): > 100 µM
TGI (M14 melanoma): > 100 µM
TGI (OVCAR-3 ovarian): > 100 µM
TGI (UACC-257 melanoma): > 100 µM
TGI (HCC-2998 colon): > 100 µM
TGI (MOLT-4 leukemia): > 100 µM

O=C(C/C(=N/O)C(F)(F)F)c1cccs1
TGI (SK-MEL-28 melanoma): > 100 µM
TGI (786-0 renal): > 100 µM
TGI (ACHN renal): > 100 µM
TGI (HT29 colon): > 100 µM
TGI (NCI-H460 lung): > 100 µM
TGI (K-562 leukemia): > 100 µM
TGI (EKVX NSCLC): > 100 µM
TGI (UO-31 renal): > 100 µM
TGI (M14 melanoma): > 100 µM
TGI (OVCAR-3 ovarian): > 100 µM
TGI (UACC-257 melanoma): > 100 µM
TGI (HCC-2998 colon): > 100 µM
TGI (MOLT-4 leukemia): > 100 µM
TGI (SN12C renal): > 100 µM

CCN(CC)CCn1c(=O)c2c(C)c3oc4ccccc4oc3c(C)c2c1=O
TGI (786-0 renal): > 100 µM
TGI (ACHN renal): > 100 µM
TGI (HT29 colon): > 100 µM
TGI (NCI-H460 lung): > 100 µM
TGI (K-562 leukemia): > 100 µM
TGI (EKVX NSCLC): > 100 µM
TGI (M14 melanoma): > 100 µM
TGI (UACC-257 melanoma): > 100 µM
TGI (HCC-2998 colon): > 100 µM
TGI (MOLT-4 leukemia): > 100 µM
TGI (SN12C renal): > 100 µM

CCCCc1ccc(Nc2nc(Cl)c3ccn(C4CC(Oc5ccc(C)cc5)C(COc5ccc(C)cc5)O4)c3n2)cc1 (stereo not given)
TGI (SK-MEL-28 melanoma): > 100 µM
TGI (786-0 renal): > 46.4 µM
TGI (ACHN renal): 31.4 µM
TGI (HT29 colon): > 46.4 µM
TGI (NCI-H460 lung): > 31.6 µM
TGI (K-562 leukemia): > 46.4 µM
TGI (EKVX NSCLC): 38 µM
TGI (UO-31 renal): 31.2 µM
TGI (M14 melanoma): > 46.4 µM
TGI (OVCAR-3 ovarian): > 100 µM
TGI (UACC-257 melanoma): 31.5 µM
TGI (HCC-2998 colon): > 46.4 µM
TGI (MOLT-4 leukemia): > 46.4 µM
TGI (SN12C renal): > 46.4 µM

CCCCc1ccc(Nc2nc(Cl)c3c(ncn3C3CC(Oc4ccc(C)cc4)C(COc4ccc(C)cc4)O3)n2)cc1 (stereo not given)
TGI (786-0 renal): > 100 µM
TGI (ACHN renal): > 100 µM
TGI (HT29 colon): > 100 µM
TGI (NCI-H460 lung): > 100 µM
TGI (K-562 leukemia): > 100 µM
TGI (EKVX NSCLC): > 100 µM
TGI (UO-31 renal): > 100 µM
TGI (M14 melanoma): > 100 µM
TGI (OVCAR-3 ovarian): > 100 µM
TGI (UACC-257 melanoma): > 100 µM
TGI (HCC-2998 colon): > 100 µM
TGI (MOLT-4 leukemia): > 100 µM
TGI (SN12C renal): > 100 µM

CC1(C)C2CCC1C(=O)[C@@]1(C=CC(=O)CC1)C2 (stereo not given in full)
TGI (SK-MEL-28 melanoma): > 100 µM
TGI (786-0 renal): > 100 µM
TGI (ACHN renal): > 100 µM
TGI (HT29 colon): > 100 µM
TGI (NCI-H460 lung): > 100 µM
TGI (K-562 leukemia): > 100 µM
TGI (EKVX NSCLC): > 100 µM
TGI (UO-31 renal): > 100 µM
TGI (M14 melanoma): > 100 µM
TGI (OVCAR-3 ovarian): > 100 µM
TGI (UACC-257 melanoma): > 100 µM
TGI (HCC-2998 colon): > 100 µM
TGI (MOLT-4 leukemia): > 100 µM
TGI (SN12C renal): > 100 µM

CC(=O)O[C@H]1C[C@@H](OC(C)=O)[C@@](C)(O)[C@@H]2[C@@H](OC(C)=O)[C@@]3(O)[C@H](/C=C(/CO)[C@H]4O[C@H]4[C@@H](OC(C)=O)[C@@]12C)OC(=O)[C@@H]3C
TGI (SK-MEL-28 melanoma): > 25 µM
TGI (786-0 renal): > 25 µM
TGI (ACHN renal): > 25 µM
TGI (HT29 colon): > 25 µM
TGI (NCI-H460 lung): > 25 µM
TGI (K-562 leukemia): > 25 µM
TGI (EKVX NSCLC): > 25 µM
TGI (UO-31 renal): > 25 µM
TGI (M14 melanoma): > 25 µM
TGI (OVCAR-3 ovarian): 15.5 µM
TGI (UACC-257 melanoma): > 25 µM
TGI (HCC-2998 colon): > 25 µM
TGI (MOLT-4 leukemia): > 25 µM
TGI (SN12C renal): > 25 µM

COc1cc(Cc2cnc(N)nc2N)cc(OC)c1OCCCNc1ccc([N+](=O)[O-])cc1
TGI (SK-MEL-28 melanoma): 27.1 µM
TGI (786-0 renal): 28 µM
TGI (ACHN renal): 37.8 µM
TGI (HT29 colon): 14.8 µM
TGI (NCI-H460 lung): 26 µM
TGI (K-562 leukemia): > 100 µM
TGI (EKVX NSCLC): 32 µM
TGI (UO-31 renal): 26.5 µM
TGI (M14 melanoma): 19.2 µM
TGI (OVCAR-3 ovarian): 28.1 µM
TGI (UACC-257 melanoma): 25.9 µM
TGI (HCC-2998 colon): 31.4 µM
TGI (MOLT-4 leukemia): 8.66 µM
TGI (SN12C renal): 41.4 µM

C=CCN1/C(=C2\SC(=S)N(c3ccc(C)cc3)C2=O)Sc2c1ncn(C)c2=O
TGI (786-0 renal): > 100 µM
TGI (ACHN renal): > 100 µM
TGI (HT29 colon): > 100 µM
TGI (NCI-H460 lung): > 100 µM
TGI (K-562 leukemia): > 100 µM
TGI (EKVX NSCLC): > 100 µM
TGI (UO-31 renal): > 100 µM
TGI (M14 melanoma): > 100 µM
TGI (UACC-257 melanoma): > 100 µM
TGI (HCC-2998 colon): > 100 µM
TGI (MOLT-4 leukemia): > 100 µM
TGI (SN12C renal): > 100 µM

Cc1cc(S(=O)(=O)Nc2nncn2-c2ccc(Cl)cc2)c(S)cc1Cl
TGI (SK-MEL-28 melanoma): > 10 µM
TGI (786-0 renal): > 10 µM
TGI (ACHN renal): > 10 µM
TGI (HT29 colon): > 10 µM
TGI (NCI-H460 lung): > 10 µM
TGI (K-562 leukemia): > 10 µM
TGI (EKVX NSCLC): > 10 µM
TGI (M14 melanoma): > 10 µM
TGI (OVCAR-3 ovarian): > 10 µM
TGI (UACC-257 melanoma): > 10 µM
TGI (HCC-2998 colon): > 10 µM
TGI (MOLT-4 leukemia): > 10 µM
TGI (SN12C renal): > 10 µM

COC(=O)C1=C(O)CCCC(C2CCCCC(=O)C2C(=O)OC)=C1 (stereo not given)
TGI (SK-MEL-28 melanoma): > 100 µM
TGI (786-0 renal): > 100 µM
TGI (ACHN renal): > 100 µM
TGI (HT29 colon): > 100 µM
TGI (NCI-H460 lung): 39.6 µM
TGI (K-562 leukemia): > 100 µM
TGI (EKVX NSCLC): > 100 µM
TGI (UO-31 renal): > 100 µM
TGI (M14 melanoma): > 100 µM
TGI (OVCAR-3 ovarian): > 100 µM
TGI (UACC-257 melanoma): > 100 µM
TGI (HCC-2998 colon): 91.6 µM
TGI (MOLT-4 leukemia): > 100 µM
TGI (SN12C renal): > 100 µM

COc1ccc2c(c1)NC1(CCN(CCCC(=O)c3ccc(F)cc3)CC1)N=N2
TGI (SK-MEL-28 melanoma): 37 µM
TGI (786-0 renal): 36.9 µM
TGI (ACHN renal): > 100 µM
TGI (HT29 colon): 69.4 µM
TGI (NCI-H460 lung): 93.5 µM
TGI (K-562 leukemia): 41 µM
TGI (EKVX NSCLC): > 100 µM
TGI (UO-31 renal): 57.8 µM
TGI (M14 melanoma): 26.6 µM
TGI (OVCAR-3 ovarian): 53.5 µM
TGI (UACC-257 melanoma): 46.1 µM
TGI (HCC-2998 colon): 28.2 µM
TGI (MOLT-4 leukemia): 41.4 µM
TGI (SN12C renal): 64.4 µM

O=[N+]([O-])c1cc(F)ccc1S(=O)(=O)c1ccccc1
TGI (SK-MEL-28 melanoma): > 10 µM
TGI (786-0 renal): > 10 µM
TGI (ACHN renal): > 10 µM
TGI (HT29 colon): > 10 µM
TGI (NCI-H460 lung): > 10 µM
TGI (K-562 leukemia): > 10 µM
TGI (EKVX NSCLC): > 10 µM
TGI (M14 melanoma): > 10 µM
TGI (OVCAR-3 ovarian): > 10 µM
TGI (UACC-257 melanoma): > 10 µM
TGI (HCC-2998 colon): > 10 µM
TGI (MOLT-4 leukemia): > 10 µM
TGI (SN12C renal): > 10 µM

C#C[C@@]1(O)CCCC2=CC3(CC[C@]21C)SCCS3
TGI (SK-MEL-28 melanoma): > 100 µM
TGI (786-0 renal): > 100 µM
TGI (ACHN renal): > 100 µM
TGI (HT29 colon): > 100 µM
TGI (NCI-H460 lung): > 100 µM
TGI (K-562 leukemia): > 100 µM
TGI (EKVX NSCLC): > 100 µM
TGI (UO-31 renal): > 100 µM
TGI (M14 melanoma): > 100 µM
TGI (OVCAR-3 ovarian): > 100 µM
TGI (UACC-257 melanoma): > 100 µM
TGI (HCC-2998 colon): > 100 µM
TGI (MOLT-4 leukemia): > 100 µM
TGI (SN12C renal): > 100 µM
